Patent US20160095843A1, “PYRAZOLOPYRROLIDINE DERIVATIVES AND THEIR USE IN THE TREATMENT OF DISEASE” (NOVARTIS AG, priority 2013, published 2016)
Read-outs that look alike come from different tables or passages of the source.

Legend:
[1] = test system: THP-1 cells; experiment: Cell growth inhibition assay (CellTiter-Glo), THP-1; assay type: cell-based; conditions: Homo sapiens
Method: (§1) Cell Growth Inhibition Assay
(§2) The human leukemia cell lines MV-4-11, THP-1 and K-562 were employed to characterize the effect of BET inhibitors on cellular proliferation and viability. Cells were obtained from the American Type Culture Collection (ATCC) and cultured at 37° C. in a humidified 5% CO2 incubator in the following media: MV-4-11: DMEM high glucose (Animed #1-26F01-I), 10% FCS (Animed #2-01F26-I), 4 mM L-Glutamine (Animed #5-10K50), 1 mM Sodium Pyruvate (Animed # G03625P), 1× Penicillin-Streptomycin (Animed # F12478P); K-562: Iscove's MEM (Animed #1-28F16-I), 10% FCS (Animed #2-01F26-I), 4 mM L-Glutamine (Animed #5-10K50), 1× Penicillin-Streptomycin (Animed # F12478P); THP-1: RPMI-1640 (Animed #1-41F01-I), 10% FCS (Animed #2-01F26-I), 2 mM L-Glutamine (Animed #5-10K50), 10 mM HEPES (Animed #5-31F100), 1 mM Sodium Pyruvate (Animed # G03625P), 1× Penicillin-Streptomycin (Animed # F12478P). The AML lines MV-4-11 and THP-1 are very sensitive to BET inhibitors and show massive cell death upon BET inhibition (Zuber et al., Nature, 478 (2011), 524-8). Compound-mediated suppression of cell proliferation/viability was assessed by quantification of cellular ATP levels using the CellTiter-Glo (CTG) reagent (Promega). Briefly, cells were seeded in 20 μl fresh medium into 384-well plates, followed by addition of 5 μL medium containing compound dilutions at 5-fold their final intended concentration. Dose-response effects were assessed by 3-fold serial dilutions of the test compound, starting at 10 μM. Following incubation of the cells for 4 days at 37° C. and 5% CO2, the effect of inhibitors on cell viability was quantified following addition of 20 μl CTG and luminescence quantification (integration time: 100 ms) as per vendor manual, using a correspondingly equipped Tecan M200 multi-mode platereader (TECAN, Switzerland). For data analysis, the assay background value determined in wells containing medium, but no cells, was subtracted from all data points. To enable differentiation of cytotoxic from cytostatic compounds, the number of viable cells is assessed relative to that observed at the time of compound addition using a separate cell plate (day 0). The effect of a particular test compound concentration on cell proliferation/viability is expressed as percentage of the background- and day 0-corrected luminescence reading obtained for cells treated with vehicle only (DMSO, 0.1% final concentration), which is set as 100%, whereas that luminescence reading for wells containing medium is set as −100%. Compound concentrations leading to half-maximal (1050) and total growth inhibition (TGI) were determined using standard four parameter curve fitting.

[2] = test system: MV-4-11 cells; experiment: Cell growth inhibition assay (CellTiter-Glo), MV-4-11; assay type: cell-based; conditions: Homo sapiens, MV4-11
Method: as §1, §2

[3] = test system: K-562 cells; experiment: Cell growth inhibition assay (CellTiter-Glo), K-562; assay type: cell-based, human
Method: as §1, §2

Which results are given for `COc1ncc(-n2nc(C)c3c2C(=O)N(c2cc(C)c(=O)n(C)c2)C3c2ccc(Cl)cc2)c(OC)n1` (racemic) [Example 52, 4-(4-chlorophenyl)-1-(2,4-dimethoxypyrimidin-5-yl)-5-(1,5-dimethyl-6-oxo-1,6-dihydropyridin-3-yl)-3-methyl-4,5-dihydropyrrolo[3,4-c]pyrazol-6(1H)-one]?
GI50 [1]: 198 nM; IC (TGI) [1]: 345 nM; GI50 [2]: 97.4 nM; IC (TGI) [2]: 156 nM; GI50 ([3]; Homo sapiens, K562): 424 nM; IC (TGI) ([3]; Homo sapiens, K562): > 10000 nM

With `Cc1nn(-c2ccnn2C)c2c1C(c1ccc(Cl)cc1)N(c1cc(C)c(=O)n(C)c1)C2=O` (racemic) [Example 74, 4-(4-chlorophenyl)-5-(1,5-dimethyl-6-oxo-1,6-dihydropyridin-3-yl)-3-methyl-1-(1-methyl-1H-pyrazol-5-yl)-4,5-dihydropyrrolo-[3,4-c]pyrazol-6(1H)-one] as the compound, how does the GI50 [1] read?
Its GI50 is 142 nM.

And the IC (TGI) [1]?
Its IC (TGI) is 327 nM.

And the GI50 [2]?
Its GI50 is 95.8 nM.

What about the IC (TGI) [2] of the same compound?
The IC (TGI) was 103 nM.

What about the GI50 ([3]; Homo sapiens, K562) of the same compound?
Its GI50 is 459 nM.

What about the IC (TGI) ([3]; Homo sapiens, K562) of the same compound?
The IC (TGI) was over 10000 nM.

What does the source list for `Cc1cc(N2C(=O)c3c(c(C4CC4)nn3C)C2c2ccc(Cl)cc2)cn2c(C)nnc12` (racemic) [Example 129, 4-(4-chlorophenyl)-3-cyclopropyl-5-(3,8-dimethyl-[1,2,4]triazolo[4,3-a]pyridin-6-yl)-1-methyl-4,5-dihydropyrrolo-[3,4-c]pyrazol-6(1H)-one]?
GI50 [1]: 22.6 nM; GI50 [2]: 14.5 nM; GI50 ([3]; Homo sapiens, K562): 98.9 nM

For `COCc1nn(C2CC2)c2c1C(c1ccc(Cl)cc1)N(c1cc(C)c(=O)n(C)c1)C2=O` (racemic) [Example 132, 4-(4-chlorophenyl)-1-cyclopropyl-5-(1,5-dimethyl-6-oxo-1,6-dihydropyridin-3-yl)-3-(methoxymethyl)-4,5-dihydropyrrolo[3,4-c]pyrazol-6(1H)-one], which GI50 [1] is on record?
Its GI50 is 107 nM.

And the IC (TGI) [1]?
Its IC (TGI) is 233 nM.

What about the GI50 [2] of the same compound?
The GI50 was 52.3 nM.

What about the IC (TGI) [2] of the same compound?
The IC (TGI) was 99.5 nM.

And the GI50 ([3]; Homo sapiens, K562)?
Its GI50 is 427 nM.

And the IC (TGI) ([3]; Homo sapiens, K562)?
The IC (TGI) was over 10000 nM.

Which results are given for `Cc1c2c(nn1C)C(=O)N(c1cc(Cl)c(=O)n(C)c1)[C@@H]2c1ccc(Cl)cc1` [Example 7, (R)-5-(5-chloro-1-methyl-6-oxo-1,6-dihydropyridin-3-yl)-4-(4-chlorophenyl)-2,3-dimethyl-4,5-dihydropyrrolo-[3,4-c]pyrazol-6(2H)-one]?
GI50 [1]: 103 nM; GI50 [2]: 71.1 nM; GI50 ([3]; Homo sapiens, K562): 632 nM

Which results are given for `Cc1cc(N2C(=O)c3nn(C)cc3[C@H]2c2ccc(Cl)cc2)cn(C)c1=O` [Example 16, (R)-4-(4-chlorophenyl)-5-(1,5-dimethyl-6-oxo-1,6-dihydropyridin-3-yl)-2-methyl-4,5-dihydropyrrolo-[3,4-c]pyrazol-6(2H)-one]?
GI50 [1]: 101 nM; GI50 [2]: 75.8 nM; GI50 ([3]; Homo sapiens, K562): 624 nM

Which results are given for `Cc1c2c(nn1C1CC1)C(=O)N(c1cc(Cl)c(=O)n(C)c1)[C@H]2c1ccc(Cl)cc1` [Example 18, (S)-5-(5-chloro-1-methyl-6-oxo-1,6-dihydropyridin-3-yl)-4-(4-chlorophenyl)-2-cyclopropyl-3-methyl-4,5-dihydropyrrolo[3,4-c]pyrazol-6(2H)-one]?
GI50 [1]: > 10000 nM; GI50 [2]: 3330 nM; GI50 ([3]; Homo sapiens, K562): > 10000 nM

Which GI50 [1] does the source give for `Cc1c2c(nn1C1CC1)C(=O)N(c1cc(Cl)c(=O)n(C)c1)[C@@H]2c1ccc(Cl)cc1` [Example 19, (R)-5-(5-chloro-1-methyl-6-oxo-1,6-dihydropyridin-3-yl)-4-(4-chlorophenyl)-2-cyclopropyl-3-methyl-4,5-dihydropyrrolo-[3,4-c]pyrazol-6(2H)-one] here?
Its GI50 is 74.6 nM.

And the GI50 [2]?
The GI50 was 25.8 nM.

And the IC (TGI) [3]?
Its IC (TGI) is over 10000 nM.

What about the GI50 ([3]; Homo sapiens, K562) of the same compound?
Its GI50 is 242 nM.

Which GI50 [1] does the source give for `Cc1cc(N2C(=O)c3nn(C4CC4)c(C)c3[C@H]2c2ccc(Cl)cc2)cn(C)c1=O` [Example 21, (R)-4-(4-chlorophenyl)-2-cyclopropyl-5-(1,5-dimethyl-6-oxo-1,6-dihydropyridin-3-yl)-3-methyl-4,5-dihydropyrrolo[3,4-c]pyrazol-6(2H)-one] here?
The GI50 was 36.6 nM.

What about the GI50 [2] of the same compound?
Its GI50 is 22.3 nM.

And the GI50 ([3]; Homo sapiens, K562)?
Its GI50 is 266 nM.

How did the GI50 [1] turn out when `Cc1cc(N2C(=O)c3n[nH]cc3C2c2ccc(Cl)cc2)cn(C)c1=O` (centres unmarked) [Example 26, 4-(4-chlorophenyl)-5-(1,5-dimethyl-6-oxo-1,6-dihydropyridin-3-yl)-4,5-dihydropyrrolo[3,4-c]pyrazol-6(2H)-one] was run?
Its GI50 is 297 nM.

What about the GI50 [2] of the same compound?
The GI50 was 204 nM.

What about the GI50 ([3]; Homo sapiens, K562) of the same compound?
Its GI50 is 1500 nM.

What does the source list for `Cc1[nH]nc2c1C(c1ccc(Cl)cc1)N(c1cc(C)c(=O)n(C)c1)C2=O` (centres unmarked) [Example 27, 4-(4-chlorophenyl)-5-(1,5-dimethyl-6-oxo-1,6-dihydropyridin-3-yl)-3-methyl-4,5-dihydropyrrolo[3,4-c]pyrazol-6(2H)-one]?
GI50 [1]: 120 nM; GI50 [2]: 55.9 nM; GI50 ([3]; Homo sapiens, K562): 463 nM

How did the GI50 [1] turn out when `Cc1cc(N2C(=O)c3c(cnn3C3CC3)C2c2ccc(Cl)cc2)cn(C)c1=O` (centres unmarked) [Example 34, 4-(4-chlorophenyl)-1-cyclopropyl-5-(1,5-dimethyl-6-oxo-1,6-dihydropyridin-3-yl)-4,5-dihydropyrrolo[3,4-c]pyrazol-6(1H)-one] was run?
Its GI50 is 162 nM.

And the GI50 [2]?
The GI50 was 82.8 nM.

And the GI50 ([3]; Homo sapiens, K562)?
The GI50 was 601 nM.

Which GI50 [1] does the source give for `Cn1cc(N2C(=O)c3c(cnn3C3CC3)C2c2ccc(Cl)cc2)cc(Cl)c1=O` (centres unmarked) [Example 35, 5-(5-chloro-1-methyl-6-oxo-1,6-dihydropyridin-3-yl)-4-(4-chlorophenyl)-1-cyclopropyl-4,5-dihydropyrrolo[3,4-c]pyrazol-6(1H)-one] here?
The GI50 was 239 nM.

And the GI50 [2]?
The GI50 was 105 nM.

What about the GI50 ([3]; Homo sapiens, K562) of the same compound?
Its GI50 is 905 nM.

With `Cc1cc(N2C(=O)c3c(cnn3C(C)C)C2c2ccc(Cl)cc2)cn(C)c1=O` (centres unmarked) [Example 36, 4-(4-chlorophenyl)-5-(1,5-dimethyl-6-oxo-1,6-dihydropyridin-3-yl)-1-isopropyl-4,5-dihydropyrrolo-[3,4-c]pyrazol-6(1H)-one] as the compound, how does the GI50 [1] read?
The GI50 was 103 nM.

And the GI50 [2]?
Its GI50 is 53.4 nM.

What about the GI50 ([3]; Homo sapiens, K562) of the same compound?
The GI50 was 430 nM.

`Cn1cc(N2C(=O)c3c(c(C(F)(F)F)nn3C3CC3)C2c2ccc(Cl)cc2)cc(Cl)c1=O` (centres unmarked) [Example 44, 5-(5-chloro-1-methyl-6-oxo-1,6-dihydropyridin-3-yl)-4-(4-chlorophenyl)-1-cyclopropyl-3-(trifluoromethyl)-4,5-dihydropyrrolo[3,4-c]pyrazol-6(1H)-one] was tested. Which GI50 [1] did it give?
The GI50 was 308 nM.

And the GI50 [2]?
Its GI50 is 217 nM.

What about the GI50 ([3]; Homo sapiens, K562) of the same compound?
The GI50 was 658 nM.

What does the source list for `Cc1cc(N2C(=O)c3c(c(C(F)(F)F)nn3C3CC3)C2c2ccc(Cl)cc2)cn(C)c1=O` (centres unmarked) [Example 45, 4-(4-chlorophenyl)-1-cyclopropyl-5-(1,5-dimethyl-6-oxo-1,6-dihydropyridin-3-yl)-3-(trifluoromethyl)-4,5-dihydropyrrolo[3,4-c]pyrazol-6(1H)-one]?
GI50 [1]: 357 nM; GI50 [2]: 251 nM; GI50 ([3]; Homo sapiens, K562): 994 nM

What does the source list for `COc1ncc(-n2nc3c(c2C(C)C)C(c2ccc(Cl)cc2)N(c2cc(C)c4onc(C)c4c2)C3=O)c(OC)n1` (centres unmarked) [Example 46, 4-(4-chlorophenyl)-2-(2,4-dimethoxypyrimidin-5-yl)-5-(3,7-dimethylbenzo[d]-isoxazol-5-yl)-3-isopropyl-4,5-dihydropyrrolo-[3,4-c]pyrazol-6(2H)-one]?
GI50 [1]: 177 nM; GI50 [2]: 115 nM; IC (TGI) [3]: >10000 nM; GI50 ([3]; Homo sapiens, K562): 370 nM

What does the source list for `COc1ncc(-n2nc3c(c2C(F)(F)F)C(c2ccc(Cl)cc2)N(c2cc(Cl)c(=O)n(C)c2)C3=O)c(OC)n1` (centres unmarked) [Example 47, 5-(5-chloro-1-methyl-6-oxo-1,6-dihydropyridin-3-yl)-4-(4-chlorophenyl)-2-(2,4-dimethoxypyrimidin-5-yl)-3-(trifluoromethyl)-4,5-dihydropyrrolo[3,4-c]pyrazol-6(2H)-one]?
GI50 [1]: 414 nM; GI50 [2]: 113 nM; GI50 ([3]; Homo sapiens, K562): 709 nM

For `Cc1nn(C2CC2)c2c1[C@@H](c1ccc(Cl)cc1)N(c1cc(C)c(=O)n(C)c1)C2=O` [Example 49, (R)-4-(4-chlorophenyl)-1-cyclopropyl-5-(1,5-dimethyl-6-oxo-1,6-dihydropyridin-3-yl)-3-methyl-4,5-dihydropyrrolo-[3,4-c]pyrazol-6(1H)-one], which GI50 [1] is on record?
Its GI50 is 29 nM.

What about the GI50 [2] of the same compound?
Its GI50 is 24.1 nM.

What about the GI50 ([3]; Homo sapiens, K562) of the same compound?
Its GI50 is 120 nM.

For `Cc1nn(C2CC2)c2c1[C@@H](c1ccc(Cl)cc1)N(c1cc(Cl)c(=O)n(C)c1)C2=O` [Example 51, (R)-5-(5-chloro-1-methyl-6-oxo-1,6-dihydropyridin-3-yl)-4-(4-chlorophenyl)-1-cyclopropyl-3-methyl-4,5-dihydropyrrolo-[3,4-c]pyrazol-6(1H)-one], which GI50 [1] is on record?
Its GI50 is 72.5 nM.

What about the GI50 [2] of the same compound?
Its GI50 is 51.9 nM.

What about the GI50 ([3]; Homo sapiens, K562) of the same compound?
The GI50 was 318 nM.
